Results on 46 molecules are retold here after patent publication US9790169B2, “IDO inhibitors” (BRISTOL-MYERS SQUIBB COMPANY, priority 2015, dated 2017).

The target of the test is human IDO1 (Homo sapiens, UniProt P14902). In words: Assessment of human IDO-1 inhibitory activity in Hela cells (Interferon-gamma stimulated HeLa cells, Ehrlich reagent, absorbance 490 nm). The class given is cell-based. More on the design: endogenous in cells; host or cells: HeLa cells stimulated with interferon-gamma. Particulars: Hela Human IDO-1 cellular assay. Put shortly: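 IDO activity induced by 18 h IFN-γ (human 10 ng/ml or murine 5 ng/ml, final) after 1 h compound pre-treatment of HeLa cells at 37 °C. Supernatant kynurenine detected via Ehrlich reagent absorbance at 490 nm following 3% TCA at 50 °C; IC50 set against no-IFN-γ and untreated-stimulated controls.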
human IDO1, sequence (P14902 whole entry): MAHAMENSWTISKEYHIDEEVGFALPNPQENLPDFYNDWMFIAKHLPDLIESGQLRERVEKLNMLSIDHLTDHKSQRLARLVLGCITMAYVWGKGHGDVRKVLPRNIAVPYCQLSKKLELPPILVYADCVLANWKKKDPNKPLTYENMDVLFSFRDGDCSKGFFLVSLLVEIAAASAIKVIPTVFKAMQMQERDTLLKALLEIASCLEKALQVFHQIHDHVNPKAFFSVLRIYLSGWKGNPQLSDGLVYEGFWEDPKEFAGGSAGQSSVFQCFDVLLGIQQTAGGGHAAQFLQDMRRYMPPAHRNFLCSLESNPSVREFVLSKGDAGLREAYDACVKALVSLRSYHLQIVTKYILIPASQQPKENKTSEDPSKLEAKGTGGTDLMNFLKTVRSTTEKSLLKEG

As usually defined, the IC50 is the point on the concentration scale where inhibition reaches its midpoint. `CCC(CC(=O)O)c1ccc(N(CC)C2CCS(=O)(=O)CC2)c(Nc2ccc(Cl)cc2)c1` (single isomer, unassigned) [Example 334 Enantiomer 1, 3-(3-((4-Chlorophenyl)amino)-4-((1,1-dioxidotetrahydro-2H-thiopyran-4-yl)(ethyl)amino)phenyl)pentanoic acid] registered a half-inhibitory concentration (IC50) of less than 5 nM. `CCC(CC(=O)O)c1ccc(N(CC)C2CCS(=O)(=O)CC2)c(Nc2ccc(C#N)cc2)c1` (single isomer, unassigned) [Example 335, 3-(3-((4-cyanophenyl)amino)-4-((1,1-dioxidotetrahydro-2H-thiopyran-4-yl)(ethyl)amino)phenyl) pentanoic acid]: the IC50 is less than 50 nM. The value for `CCN(c1ccc(C(CC(=O)O)C2CC2)cc1Nc1ccc(Cl)cc1)C1CCS(=O)(=O)CC1` (single isomer, unassigned) [Example 339 Enantiomer 1, 3-(3-((4-Chlorophenyl)amino)-4-((1,1-dioxidotetrahydro-2H-thiopyran-4-yl)(ethyl)amino)phenyl)-3-cyclopropylpropanoic acid] was less than 5 nM. Turning to `CCN(c1ccc(C(CC(=O)O)C2CC2)cc1Nc1ccc(OC)nc1)C1CCS(=O)(=O)CC1` (single isomer, unassigned) [Example 342, 3-cyclopropyl-3-(4-((1,1-dioxidotetrahydro-2H-thiopyran-4-yl)(ethyl)amino)-3-((6-methoxypyridin-3-yl)amino)phenyl)propanoic acid], the IC50 is less than 50 nM. The molecule `CCN(c1ccc(C(CC(=O)O)C2CC2)cc1Nc1ccc(F)cc1)C1CCS(=O)(=O)CC1` (single isomer, unassigned) [Example 343, 3-cyclopropyl-3-(4-((1,1-dioxidotetrahydro-2H-thiopyran-4-yl)(ethyl)amino)-3-((4-fluorophenyl)amino)phenyl) propanoic acid] yielded an IC50 of less than 5 nM.

In the case of `CCN(c1ccc([C@@H](COC)CC(=O)O)cc1Nc1ccc(C#N)cn1)C1CCOCC1` (single isomer, unassigned) [Example 352], the IC50 is less than 50 nM. As for `CCN(c1ccc([C@@H](COC)CC(=O)O)cc1Nc1ccc(C#N)c(F)c1)C1CCOCC1` (single isomer, unassigned) [Example 353], the half-maximal inhibitory concentration (IC50) is less than 5 nM. The value for `CCN(c1ccc([C@@H](COC)CC(=O)O)cc1Nc1ccc(C#N)c(C)c1)C1CCOCC1` (single isomer, unassigned) [Example 354] was less than 50 nM; that for `CCN(c1ccc([C@@H](COC)CC(=O)O)cc1Nc1ccc(C#N)cc1F)C1CCOCC1` (single isomer, unassigned) [Example 355] was less than 5 nM. In turn, `CCN(c1ccc([C@@H](COC)CC(=O)O)cc1Nc1ccc(Cl)cn1)C1CCOCC1` (single isomer, unassigned) [Example 356] had a concentration for half-maximal inhibition (IC50) of less than 5 nM. For `CCN(c1ccc([C@@H](COC)CC(=O)O)cc1Nc1ncc(Cl)cn1)C1CCOCC1` (single isomer, unassigned) [Example 357], the half-inhibitory concentration (IC50) is less than 50 nM.

In turn, `CCN(c1ccc([C@@H](COC)CC(=O)O)cc1Nc1ncc(F)cc1F)C1CCOCC1` (single isomer, unassigned) [Example 358] registered an IC50 of less than 50 nM. For the molecule `CCN(c1ccc([C@@H](COC)CC(=O)O)cc1Nc1ncc(F)cn1)C1CCOCC1` (single isomer, unassigned) [Example 359], the IC50 is more than 50 nM. The result for `CCN(c1ccc([C@@H](COC)CC(=O)O)cc1Nc1cccc(OC(F)(F)C(F)F)c1)C1CCOCC1` (single isomer, unassigned) [Example 360] reads more than 50 nM. As to `CCN(c1ccc([C@@H](COC)CC(=O)O)cc1Nc1ccc(Cl)cc1F)C1CCOCC1` (single isomer, unassigned) [Example 362], the concentration for half-maximal inhibition (IC50) was less than 5 nM.

As for `CCN(c1ccc([C@@H](COC)CC(=O)O)cc1Nc1ccc(F)cn1)C1CCOCC1` (single isomer, unassigned) [Example 363], the IC50 was less than 50 nM. The value for `CCN(c1ccc([C@@H](COC)CC(=O)O)cc1Nc1ccc(C(F)(F)F)cc1)C1CCOCC1` (single isomer, unassigned) [Example 364] was less than 5 nM. Regarding `CCN(c1ccc([C@@H](COC)CC(=O)O)cc1Nc1ccc(F)cc1F)C1CCOCC1` (single isomer, unassigned) [Example 365], the concentration for half-maximal inhibition (IC50) was less than 50 nM. In turn, `CCN(c1ccc([C@@H](COC)CC(=O)O)cc1Nc1ccc(C#N)cc1C)C1CCOCC1` (single isomer, unassigned) [Example 367] displayed an IC50 of less than 50 nM.

In turn, `CCN(c1ccc([C@@H](COC)CC(=O)O)cc1Nc1cccc(C#N)c1)C1CCOCC1` (single isomer, unassigned) [Example 368] had an IC50 of less than 50 nM. The value for `CCN(c1ccc([C@@H](COC)CC(=O)O)cc1Nc1ccccc1C#N)C1CCOCC1` (single isomer, unassigned) [Example 369] was more than 50 nM; that for `CCOc1cc(Nc2cc([C@@H](COC)CC(=O)O)ccc2N(CC)C2CCOCC2)ccc1C#N` (single isomer, unassigned) [Example 370] was less than 50 nM.

As to `CCN(c1ccc([C@@H](COC)CC(=O)O)cc1Nc1ccc(C#N)c(OCC(F)F)c1)C1CCOCC1` (single isomer, unassigned) [Example 371], the half-maximal inhibitory concentration (IC50) is less than 50 nM.

As for `CCN(c1ccc([C@@H](COC)CC(=O)O)cc1Nc1ccc(C#N)c(OCC(F)(F)F)c1)C1CCOCC1` (single isomer, unassigned) [Example 372], the IC50 was less than 50 nM. In the case of `CCN(c1ccc([C@@H](COC)CC(=O)O)cc1Nc1ccc(C#N)c(Cl)c1)C1CCOCC1` (single isomer, unassigned) [Example 381], the IC50 is less than 50 nM. The value for `CCN(c1ccc([C@@H](COC)CC(=O)O)cc1Nc1ccc(C#N)c(C)n1)C1CCOCC1` (single isomer, unassigned) [Example 382] was less than 50 nM; that for `CCN(c1ccc([C@@H](COC)CC(=O)O)cc1Nc1ccc(C#N)c(C(F)(F)F)c1)C1CCOCC1` (single isomer, unassigned) [Example 383] was more than 50 nM.

In turn, `CCN(c1ccc([C@@H](COC)CC(=O)O)cc1Nc1cc(C)c(C#N)cn1)C1CCOCC1` (single isomer, unassigned) [Example 384] returned an IC50 of more than 50 nM. The result for `CCN(c1ccc([C@@H](COC)CC(=O)O)cc1Nc1ccc(C(N)=O)cc1)C1CCOCC1` (single isomer, unassigned) [Example 385] reads more than 50 nM. Turning to `CCN(c1ccc([C@@H](COC)CC(=O)O)cc1Nc1ccc(S(=O)(=O)CC)cc1)C1CCOCC1` (single isomer, unassigned) [Example 386], the IC50 is more than 50 nM. The result for `CCN(c1ccc([C@@H](COC)CC(=O)O)cc1NC(=O)Nc1ccc(Cl)cc1F)C1CCOCC1` (single isomer, unassigned) [Example 423] reads more than 50 nM; that for `CCN(c1ccc([C@@H](COC)CC(=O)O)cc1NC(=O)Nc1ccc(Cl)cc1Cl)C1CCOCC1` (single isomer, unassigned) [Example 430], less than 50 nM; that for `CCN(c1ccc([C@@H](COC)CC(=O)O)cc1NC(=O)Nc1ccc(F)cc1F)C1CCOCC1` (single isomer, unassigned) [Example 431], more than 50 nM. The value for `CCN(c1ccc([C@H](COC)CC(=O)O)cc1NC(=O)Nc1ccc(Cl)cc1Cl)C1CCOCC1` (single isomer, unassigned) [Example 441] was more than 50 nM. The result for `CCN(c1ccc([C@H](COC)CC(=O)O)cc1NC(=O)Nc1ccc(F)cc1F)C1CCOCC1` (single isomer, unassigned) [Example 442] reads more than 50 nM; that for `CCC(CC(=O)O)c1ccc(N2C[C@@H]3C[C@H]2CN3C(=O)OC(C)(C)C)c(Nc2ccc(C#N)cc2)c1` (single isomer, unassigned) [Example 443 Diastereomer 1], less than 5 nM; that for `CCC(CC(=O)O)c1ccc(N2C[C@@H]3C[C@H]2CN3C(=O)OC(C)(C)C)c(Nc2ccc(C#N)cc2)c1` (single isomer, unassigned) [Example 443 Diastereomer 2], less than 50 nM. As for `CCC(CC(=O)O)c1ccc(N2C[C@@H]3C[C@H]2CN3C(=O)OC(C)(C)C)c(Nc2ccccc2)c1` (single isomer, unassigned) [Example 444], the half-inhibitory concentration (IC50) was less than 5 nM. Molecule `CCOc1ncc(Nc2cc(C(CC)CC(=O)O)ccc2N2C[C@@H]3C[C@H]2CN3C(=O)OC(C)(C)C)cn1` (single isomer, unassigned) [Example 448] returned a 50% inhibitory concentration (IC50) of more than 50 nM. `CCC(CC(=O)O)c1ccc(N2C[C@@H]3C[C@H]2CN3C(=O)OC)c(Nc2ccc(C#N)cc2)c1` (single isomer, unassigned) [Example 449] had an IC50 of less than 50 nM.

The molecule `CCC(CC(=O)O)c1ccc(N2C[C@@H]3C[C@H]2CN3CC(F)F)c(Nc2ccc(C#N)cc2)c1` (single isomer, unassigned) [Example 450] returned an IC50 of more than 50 nM. With `COCC(CC(=O)O)c1ccc(N2C[C@@H]3C[C@H]2CN3C(=O)OC(C)(C)C)c(Nc2ccc(C#N)cc2)c1` (single isomer, unassigned) [Example 451 Diastereomer 1], the IC50 is less than 50 nM.

In turn, `COCC(CC(=O)O)c1ccc(N2C[C@@H]3C[C@H]2CN3C(=O)OC(C)(C)C)c(Nc2ccc(C#N)cc2)c1` (single isomer, unassigned) [Example 451 Diastereomer 2] displayed a concentration for half-maximal inhibition (IC50) of more than 50 nM. Turning to `CC[C@@H](CC(=O)O)c1ccc(N(CC)C2CCOCC2)c(Nc2cnc(N(C)C)nc2)c1` (single isomer, unassigned) [Example 459], the half-inhibitory concentration (IC50) was less than 50 nM.

On to `CC[C@@H](CC(=O)O)c1ccc(N(CC)C2CCOCC2)c(Nc2ccc(C#N)cn2)c1` (single isomer, unassigned) [Example 461], for which the 50% inhibitory concentration (IC50) was less than 5 nM. The result for `CC[C@@H](CC(=O)O)c1ccc(N(CC)C2CCOCC2)c(Nc2ccc(OC)cn2)c1` (single isomer, unassigned) [Example 462] reads less than 5 nM.
